Experiments:
[1] = system: primary glioblastoma line GS1049; experiment: Cell count of primary glioblastoma line GS1049; type: cell-based; conditions: 48 h incubation, cell counting normalized to untreated controls; read-out: Estimated IC50 values, GS 1049
Experimental: FIG. 7A depicts the results of primary glioblastoma lines 612 and GS1049 after incubation for 48 h with Ac4Glc2Bz followed by cell counting and normalization to untreated controls. The data is log transformed to easily determine IC50 values. FIG. 7B and FIG. 7C depict the measurement of proliferation of the primary glioblastoma lines after 48 h incubation with Ac4Glc2Bz using a MTT assay.
Cells were incubated at a range of concentrations of the UAP inhibitors (typically at 0, 10, 25, 50, 100, and 150 μM) and the number of cells were quantified, typically by automated counting (e.g., with a Coulter Counter Z2 instrument) after 1, 2, 3, or 5 days of exposure.

[2] = system: UDP-Glc/GalNAc (HexNAc), product of UAP1/2; experiment: Targeted metabolomics, LC-MS/MS of UDP-HexNAc in 612 cells; type: cell-based
Experimental: FIGS. 16A-16B show exemplary targeted metabolomics results from primary glioblastoma cells. […] (n=3, with error bars representing SEM;* indicates p<0.05)
In FIGS. 16A-16B, representative targeted metabolomics results from primary glioblastoma cells were quantitated using LC-MS/MS traces. For example, the 612 cells were treated with 50 μM or 100 μM of Ac4Glc2Bz or non-treated (control). Afterwards, the cell extracts were obtained using Bligh-Dyer extraction and the extracts were analyzed using LC-MS/MS. Twelve 150-mm tissue culture plates were coated with lamin (1 ug/cm^2) in PBS for 24 h. 5×10^6 612 cells were seed onto each plate in 20 mL of media for condition tested: DMSO vehicle control (2 plates) (matched to the volume of vehicle used for the 100 μM condition), 50 μM (4 plates), 100 μM (6 plates). Ater 48 h, the plates were cooled for 10 minutes on ice followed by aspiration of the media. The plates were then tilted at 30° for 30 seconds and any remaining media was removed. Plates were washed twice with 10 mL of ice cold PBS (calcium and magnesium ion free). Next, the plates were covered and chilled with dry ice for 10 minutes to completely freeze all of the cells. While freezing the cells, a solution of methanol:H2O (2:0.8) was made and chilled in an isopropyl alcohol-dry ice bath. The plates were transferred to wet ice and 500 μL of the MeOH:H2O solution was added to the plates. Cells were scraped and the were transferred to a 15 mL tube. 500 μL more of the methanol:H2O solution was added again, and any remaining cells were scraped off the plates and were transferred to the 15 mL tubes. Samples, while remaining cold, were sonicated 2-5 times for 1 s and 1 part of chloroform was added to produce a ration of 1:2:0.8 (CHCl3:MeOH:H2O). Samples were briefly vortexed while still cold and 1 part of H2O was added followed by vortexing. […] DNA quantity from the interphase disc was determined using a fluorescent assay (SIGMA). […] The aqeuous layers were combined after normazling reconstitutions to the quantities of DNA obtained for each condition tested. […]

CC(=O)OCC1OC(OC(C)=O)[C@@H](NC(=O)c2ccccc2)[C@@H](OC(C)=O)[C@@H]1OC(C)=O (stereo partly shown) [Ac4Glc2Bz]
IC50 [1]: 88.8 ± 1.8 µM
LC-MS/MS peaks for UDP-HexNAc in treated cell extracts ([2]; 612 cells, 50 μM or 100 μM, 48 h): substantially lower
reduction of quantitized amount of UDP-HexNAc, particularly UDP-GlcNAc, vs non-treated cell ([2]; 612 cells, 50 μM, 48 h): ~4 fold
residual level of UDP-GlcNAc ([2]; printed as shown in FIGS. 18A-18B): about 25%

From US11827663B2, “Use of UAP inhibitors to inhibit flux through the hexosamine biosynthetic pathway” (The Johns Hopkins University, priority 2014, dated 2023)
